The test system of one test is HT-29. The test can be described thus: Cytotoxicity against human HT-29 cells after 72 hrs by methylene blue assay. Particulars: HT-29, 72 h.
The subject of the next test is MCF7. The test can be described thus: Cytotoxicity against human MCF7 cells after 72 hrs by methylene blue assay. The settings on record: MCF7, 72 h.
A short description of test [1]: Cytotoxicity against human HL60 cells after 48 hrs by trypan blue exclusion method. Format: functional, cell-based. Particulars: HL-60, 48 h.
Another test relates to KB. The test can be described thus: Cytotoxicity against human KB cells after 72 hrs by methylene blue assay.
The test system of a further test is K562. The test can be described thus: Cytotoxicity against human K562 cells after 48 hrs by trypan blue exclusion method. The class given is functional, cell-based. Particulars: K562, 48 h.
The next test concerns HepG2. The test can be described thus: Cytotoxicity against human HepG2 cells after 72 hrs by methylene blue assay. The settings on record: HepG2, 72 h.

Each structure is given as a SMILES string.

The IC50 is the midpoint of a concentration-inhibition curve. With `COC1=Cc2ccnc3c(NCC(C)C)cnc(c23)C1=O`, the IC50 in the test with HT-29 was determined as 8500 nM; in the test on MCF7, 2300 nM; in test [1], 280 nM; in the test with KB it was 1100 nM; in the test with K562, 460 nM; in the test with HepG2 it was 1000 nM.

For the compound `CC(=O)O[C@H]1C(=O)[C@@]2(C)[C@H]([C@H](OC(=O)c3ccccc3)[C@]3(O)C[C@H](OC(=O)[C@H](O)[C@@H](NC(=O)c4ccccc4)c4ccccc4)C(C)=C1C3(C)C)[C@]1(OC(C)=O)CO[C@@H]1C[C@@H]2O` [PACLITAXEL], the IC50 in the test on HT-29 was found to be 3.5 nM; with MCF7, 3.2 nM; in test [1], 1.5 nM; with K562, 2.4 nM; in the test with HepG2, 2.7 nM.

For the compound `COC1=Cc2ccnc3c(NCCc4ccccc4)cnc(c23)C1=O`, the IC50 was 2200 nM in the test on HT-29; 400 nM in the test on MCF7; 30 nM in test [1]; 120 nM in the test on KB; 90 nM with K562; 200 nM in the test on HepG2.

`CCC(C)CNc1cnc2c3c(ccnc13)C=C(OC)C2=O` (configuration not stated): the IC50 (in the test on HT-29; in the test with MCF7; in test [1]; in the test with KB; in the test with K562; in the test with HepG2) was above 10 µg/mL each time.

As for `COC1=Cc2ccnc3c4c(nc(c23)C1=O)CCCN4`, the IC50 (in the test with HT-29; in the test with MCF7; in test [1]; with KB; in the test on K562; with HepG2) was above 10 µg/mL throughout.

As for `CCOC1=Nc2c(N)c(OC)cc3ccnc(c23)C1=O`, the IC50 with HT-29 is 6600 nM; in the test with MCF7 it was 1200 nM; in test [1], 110 nM; with KB, 660 nM; in the test with K562 it was 220 nM; with HepG2 it was 600 nM.

Regarding `COC1=Cc2ccnc3c(NCCC(C)C)cnc(c23)C1=O`, the IC50 in the test with HT-29 was determined as 1800 nM; in the test on MCF7, 440 nM; in test [1], 30 nM; in the test with KB, 110 nM; in the test with K562, 90 nM; in the test with HepG2 it was 170 nM.

`CCOc1nc2c(=O)[nH]c3c(OC)c(OC)cc4ccn1c2c43`: the IC50 (in the test on HT-29; in the test with MCF7; in test [1]; with KB; with K562; in the test on HepG2) was above 10 µg/mL in each case.

With `CNc1cnc2c3c(ccnc13)C=C(OC)C2=O`, the IC50 (in the test with HT-29; with MCF7; in test [1]; in the test with KB; with K562; with HepG2) was above 10 µg/mL each time.

Regarding `COc1cc2ccn3c(CC(C)C)nc4c(=O)[nH]c(c1OC)c2c43`, the IC50 (in the test on HT-29; in the test on MCF7; in test [1]; in the test with KB; in the test with K562; in the test on HepG2) was above 10 µg/mL in each case.

As for `COc1cc2ccn3c(C(C)C)nc4c(=O)[nH]c(c1OC)c2c43`, the IC50 (with HT-29; in the test with MCF7; in test [1]; in the test with KB; in the test on K562; in the test on HepG2) was above 10 µg/mL in each case.

As to `CCC(C)c1nc2c(=O)[nH]c3c(OC)c(OC)cc4ccn1c2c43` (configuration not stated), the IC50 (with HT-29; in the test on MCF7; in test [1]; in the test with KB; with K562; with HepG2) was above 10 µg/mL throughout.

Take `CCOC(=O)CCCNc1cnc2c3c(ccnc13)C=C(OC)C2=O`: the IC50 (with HT-29; with MCF7; in test [1]; in the test on KB; in the test on K562; with HepG2) was above 10 µg/mL each time.

For the origin of these results see ChEMBL document CHEMBL3352146, “Cytotoxic aaptamine derivatives from the South China Sea sponge Aaptos aaptos” (J Nat Prod, 2014).
